The Deep4Chem optical property database
Values joined by “and” are separate entries in the source; they are usually repeats but may differ in a detail not shown here. Identical values can stand only once.

Assay: solvent given as SMILES

Question: Which results are given for `CCn1c2sccc2c2c3nsnc3c3c4ccsc4n(CC)c3c21`?
Answer: fluorescence lifetime (in C1CCOC1): 15 ns; fluorescence lifetime (in CCOC(C)=O): 15.6 ns; fluorescence lifetime (in CN(C)C=O): 16.8 ns; fluorescence lifetime (in Cc1ccccc1): 13 ns; fluorescence lifetime (in ClCCl): 14.6 ns

Question: With `CN(C)c1ccc(/C=C/c2cc[n+](Cc3cc(C[n+]4ccc(/C=C/c5ccc(N(C)C)cc5)cc4)cc(C[n+]4ccc(/C=C/c5ccc(N(C)C)cc5)cc4)c3)cc2)cc1` as the molecule, how does the fluorescence lifetime (in CCCCCCCCO) read?
Answer: 0.64 ns

Question: What about the fluorescence lifetime (in CCO) of the same molecule?
Answer: 0.06 ns

Question: And the fluorescence lifetime (in CO)?
Answer: 0.04 ns

Question: And the fluorescence lifetime (in ClC(Cl)Cl)?
Answer: 0.64 ns

Question: What about the fluorescence lifetime (in ClCCl) of the same molecule?
Answer: 0.32 ns

Question: Which fluorescence lifetime (in ClCCl) does the source give for `CC[B-]1(CC)c2cccc3cc4ccccc4c(c23)-c2cccc(C)[n+]21` here?
Answer: 4.1 ns

Question: Which fluorescence lifetime (in CC#N) does the source give for `C[n+]1ccc2c(ccc3c[n+](C)c4ccc5ccccc5c4c32)c1` here?
Answer: 10.2 ns

Question: For `CN(C)CCCN1c2ccccc2CCc2ccccc21`, which fluorescence lifetime (in CC#N) is on record?
Answer: 0.85 ns

Question: What about the fluorescence lifetime (in CO) of the same molecule?
Answer: 0.54 ns

Question: And the fluorescence lifetime (in O)?
Answer: 1.12 ns

Question: What does the source list for `C(=C\c1c2ccccc2cc2ccccc12)/c1ccc2ccccc2c1`?
Answer: fluorescence lifetime (in CC1CCCCC1): 3.3 ns; fluorescence lifetime (in CC#N): 3.6 ns

Question: Which fluorescence lifetime (in CN(C)C=O) does the source give for `Nc1ccc(N2C(=O)c3ccc4c5ccc6c7c(ccc(c8ccc(c3c48)C2=O)c75)C(=O)N(c2ccc(N)cc2)C6=O)cc1` here?
Answer: 3.8 ns

Question: What does the source list for `CN(C)c1ccc(C#Cc2ccc(C#Cc3ccc(C#Cc4ccccc4C#N)cc3C#N)cc2C#N)cc1`?
Answer: fluorescence lifetime (in C1CCOC1): 1.7 ns; fluorescence lifetime (in CC#N): 1.66 ns; fluorescence lifetime (in CN(C)C=O): 1.86 ns; fluorescence lifetime (in ClC(Cl)Cl): 1.78 ns; fluorescence lifetime (in c1ccccc1): 1.74 ns

Question: For `CCOC(=O)c1csc2[n+]1[B-](F)(F)OC(c1ccc(N(C)C)cc1)=N2`, which fluorescence lifetime (in C1CCOC1) is on record?
Answer: 2.1 ns

Question: With `F[B-]1(F)OC(c2ccccc2)=Cc2ccc3ccccc3[n+]21` as the molecule, how does the fluorescence lifetime (in ClC(Cl)Cl) read?
Answer: 1.29 ns

Question: Which fluorescence lifetime (in ClCCl) does the source give for `Cc1csc2[n+]1[B-](F)(F)n1c(c3cccc4cccc1c43)=N2` here?
Answer: 6.5 ns

Question: Which fluorescence lifetime (in O) does the source give for `O=S(=O)([O-])c1ccc([O-])c2ccccc12` here?
Answer: 15 ns

Question: Which fluorescence lifetime (in C1COCCO1) does the source give for `CCOC(=O)c1ccc(NC(=O)COc2cc3c4c([nH]c3c(C)c2C)C(=O)CCC4)cc1` here?
Answer: 1.23 ns

Question: And the fluorescence lifetime (in CC#N)?
Answer: 1.04 ns

Question: What about the fluorescence lifetime (in CCO) of the same molecule?
Answer: 1.26 ns

Question: And the fluorescence lifetime (in CS(C)=O)?
Answer: 2.12 ns

Question: What about the fluorescence lifetime (in Cc1ccccc1) of the same molecule?
Answer: 1.1 ns

Question: For `CN(C)c1ccc(-c2c(/C=C3/C=Cc4ccccc4N3Cc3ccccc3)c(=O)c2=O)cc1`, which fluorescence lifetime (in C1CCCCC1) is on record?
Answer: 2.19 ns

Question: And the fluorescence lifetime (in Cc1ccccc1)?
Answer: 2.13 ns

Question: And the fluorescence lifetime (in ClCCl)?
Answer: 0.13 ns

Question: With `CCCCCCN1C(=O)c2cccc3cc(/N=C\c4ccc(N(c5ccccc5)c5ccccc5)cc4)cc(c23)C1=O` as the molecule, how does the fluorescence lifetime (in ClC(Cl)Cl) read?
Answer: 15.4 ns

Question: With `Cc1cc(C)c2cc3cc(C)ncc3cc2c1` as the molecule, how does the fluorescence lifetime (in CCO) read?
Answer: 18 ns

Question: For `Nc1ccc2c(C(F)(F)F)cc(=O)oc2c1`, which fluorescence lifetime (in C1CCC2CCCCC2C1) is on record?
Answer: 1.9 ns

Question: What about the fluorescence lifetime (in C1CCCCC1) of the same molecule?
Answer: 1.2 ns

Question: What about the fluorescence lifetime (in C1COCCO1) of the same molecule?
Answer: 4.65 ns

Question: What about the fluorescence lifetime (in CC1CCCCC1) of the same molecule?
Answer: 1.22 ns

Question: And the fluorescence lifetime (in CC#N)?
Answer: 5.2 ns and 5.13 ns

Question: And the fluorescence lifetime (in CC(C)=O)?
Answer: 4.97 ns

Question: What about the fluorescence lifetime (in CC(C)O) of the same molecule?
Answer: 5.28 ns

Question: And the fluorescence lifetime (in CCC(C)CC)?
Answer: 0.842 ns

Question: What about the fluorescence lifetime (in CCCC(C)C) of the same molecule?
Answer: 0.406 ns

Question: What about the fluorescence lifetime (in CCCCCC) of the same molecule?
Answer: 0.854 ns

Question: And the fluorescence lifetime (in CCCCCCCCO)?
Answer: 5.4 ns

Question: And the fluorescence lifetime (in CCCCCCO)?
Answer: 5.29 ns

Question: What about the fluorescence lifetime (in CCCCO) of the same molecule?
Answer: 5.24 ns

Question: And the fluorescence lifetime (in CCO)?
Answer: 5.38 ns

Question: What about the fluorescence lifetime (in CCOC(C)=O) of the same molecule?
Answer: 4.67 ns

Question: What about the fluorescence lifetime (in CN(C)C=O) of the same molecule?
Answer: 5.22 ns

Question: What about the fluorescence lifetime (in CO) of the same molecule?
Answer: 5.31 ns

Question: What about the fluorescence lifetime (in CS(C)=O) of the same molecule?
Answer: 5 ns

Question: For `CC(C)(C)c1cc2cc(N(c3ccccc3)c3ccccc3)c3cc(C(C)(C)C)cc4cc(N(c5ccccc5)c5ccccc5)c(c1)c2c43`, which fluorescence lifetime (in CCCCCC) is on record?
Answer: 4.6 ns

Question: Which fluorescence lifetime (in c1cc(-c2cccc(-n3c4ccccc4c4ccccc43)c2)cc(-n2c3ccccc3c3ccccc32)c1) does the source give for `CC1(C)c2ccccc2N(c2ccc3c(c2)c2ccccc2c2nc4ccccc4nc32)c2ccccc21` here?
Answer: 68 ns

Question: Which fluorescence lifetime (in CC#N) does the source give for `Nc1ccc(/C=C/c2ccc3ccccc3c2)cc1` here?
Answer: 0.23 ns

Question: What about the fluorescence lifetime (in CCCCCC) of the same molecule?
Answer: 0.2 ns

Question: With `c1cc2ccc3ccc4cc3c2cc1CCCCCCc1ccc2ccc3ccc-4cc3c2c1` as the molecule, how does the fluorescence lifetime (in Cc1ccccc1) read?
Answer: 8.7 ns

Question: For `CC1(C)c2ccccc2N(c2ccc(-c3cc(-c4ccccc4)nc(-c4ccccc4)n3)cc2)c2ccccc21`, which fluorescence lifetime (in Cc1ccccc1) is on record?
Answer: 4.23 ns

Question: What about the fluorescence lifetime (in ClCCl) of the same molecule?
Answer: 25 ns

Question: With `Cc1nc2c(ccc3ccccc32)oc1=O` as the molecule, how does the fluorescence lifetime (in c1ccccc1) read?
Answer: 1.5 ns

Question: Which fluorescence lifetime (in ClCCl) does the source give for `CC(C)(C)c1ccc2c(c1)c1cc(C(C)(C)C)ccc1n2-c1ccc(C#Cc2ccc3c4ccc(C#Cc5ccc(C=C(C#N)C#N)cc5)cc4n(-c4ccc(C(F)(F)F)cc4)c3c2)cc1` here?
Answer: 0.29 ns

Question: For `Cc1cc(C)c(B(c2cc3c4c(c(B(c5c(C)cc(C)cc5C)c5c(C)cc(C)cc5C)cc5c4c2CCC5)CCC3)c2c(C)cc(C)cc2C)c(C)c1`, which fluorescence lifetime (in CCCCCC) is on record?
Answer: 14.6 ns

Question: With `CC1=CC(C)=[N+]2C1=C(c1ccc(I)cc1)c1c(C)cc(C)n1[B-]21OCCO1` as the molecule, how does the fluorescence lifetime (in ClC(Cl)Cl) read?
Answer: 0.93 ns

Question: For `Cc1ccccc1[B-]1(c2ccccc2C)n2nc(C(F)(F)F)cc2-c2c3ccccc3cc[n+]21`, which fluorescence lifetime (in C1CCCCC1) is on record?
Answer: 0.525 ns

Question: What about the fluorescence lifetime (in Cc1ccccc1) of the same molecule?
Answer: 0.425 ns

Question: What about the fluorescence lifetime (in ClCCl) of the same molecule?
Answer: 0.938 ns
